Assays:
[1] = system: EDG2-overexpressing cardiomyocytes; experiment: Shortening measurements (contractility) in single isolated cardiomyocytes after Ad-EDG2-GFP gene transfer; type: cell-based, rabbit
Experimental: (§1) Contractility of infected cardiomyocytes was measured by an electro-optical monitoring system connected to online digitalized assessment of amplitude and velocity of shortening and of relaxation. Transgene-positive cardiomyocytes were identified by co-expression of GFP under fluorescent light. After the contraction amplitude reached stability, increasing concentrations of isoproterenol were applied at constant concentrations of lysophosphatidic acid (LPA; 10^−5 mol/l); or increasing LPA concentrations were added to constant concentrations of isoproterenol (10^−8 mol/l).
(§2) In order to investigate the effects of EDG2 on cardiomyocyte contractility, fractional shortening and velocity of shortening in single, isolated cardiomyocytes from failing hearts after ex vivo gene transfer was measured.
(§3) Single calcium-tolerant ventricular cardiomyocytes were isolated from failing White New Zealand rabbit hearts. Briefly, the hearts were perfused and digested with collagenase. The isolated cardiomyocytes were cultured in modified M199 on laminin-precoated dishes (5–10 μg/cm^2) at a density of 1.5×10^5 cells per cm^2 (at 5% CO2 and 37° C.). For contraction experiments, the cells were infected with adenovirus (multiplicity of infection (moi) 1 pfu/cell) 5 hours after plating. 50–60% of the infected cardiomyocytes expressed the transgene at this titer.

human EDG2 = target: T1, human EDG2 (Homo sapiens, UniProt Q92633); details: HEK293 cells expressing the human EDG2 protein; LPA concentration dependent; cited from earlier work
T1 construct: host or cells: HEK293 cells expressing human EDG2

[2] = system: control GFP cardiomyocytes; experiment: Shortening measurements (contractility) in single isolated cardiomyocytes after Ad-GFP gene transfer (control); type: cell-based, rabbit; details: increasing concentrations of LPA after prestimulation with isoproterenol 10^-8 mol/l; control GFP group; FIG. 2
Experimental: as §1, §2, §3

T1 sequence (Q92633 whole entry): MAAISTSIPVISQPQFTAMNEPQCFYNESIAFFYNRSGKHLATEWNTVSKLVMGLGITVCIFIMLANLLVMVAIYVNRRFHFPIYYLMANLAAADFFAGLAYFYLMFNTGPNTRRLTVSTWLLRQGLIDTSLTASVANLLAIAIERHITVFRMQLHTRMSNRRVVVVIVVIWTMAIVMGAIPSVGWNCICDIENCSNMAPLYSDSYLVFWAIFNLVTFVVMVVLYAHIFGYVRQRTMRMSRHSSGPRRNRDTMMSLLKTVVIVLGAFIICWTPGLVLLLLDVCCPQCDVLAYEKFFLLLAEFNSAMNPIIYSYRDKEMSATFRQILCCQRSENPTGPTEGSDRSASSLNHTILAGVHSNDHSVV

Compound	inotropic effect (fractional shortening) ([1]; increasing concentrations of isoproterenol at constant LPA 10^-5 mol/l, EDG2-overexpressing versus control, FIG. 1)	effect on basal contractility of cardiomyocytes ([1]; LPA 10^-5 mol/l, isolated cardiomyocytes from failing hearts)	effect on contractility of cardiomyocytes ([1]; absence of prestimulation with isoproterenol)	inotropic effect (fractional shortening) ([1]; increasing concentrations of LPA after prestimulation with isoproterenol 10^-8 mol/l, FIG. 2)	response in serum response element reporter gene assay (human EDG2)	inotropic effect (fractional shortening) [2]
CC(C)NCC(O)c1ccc(O)c(O)c1 (stereo not drawn) [isoproterenol]	significantly lower positively inotropic effect	–	–	–	–	–
lysophosphatidic acid [LPA]	–	does not alter basal contractility	no effect on the contractility	significant negatively inotropic effect	elevated response	no effect

Source: patent US7169612B2, “Use of EDG2 receptor in an animal model of heart failure” (Sanofi-Aventis Deutschland GmbH, priority 2002, dated 2007)
